# Key:
# AP mRNA in 293tat cells = assay: AP mRNA level in 293tat cells, Northern blot; assay type: cell-based, human; details: with TNF-α or IL-1β
# Protocol: (§1) Nuclear extracts (A) from 293tat cells were tested by EMSA for activation of NFκB. A radiolabeled 40-mer covering the NFκB sequences in the HIV promoter was used as a probe. Cells were incubated with CT2576 at 12 μM, human TNF-α at 40 ng/ml or IL-1β at 1 ng/ml, or pre-incubated for 30 min. with CT2576 and then stimulated with TNF-α or IL-1β for 18 hr prior to making extracts. RNA was extracted from 293tat cells (B) after treatment with CT2576 without or with TNF-α or IL-1β for 18 hr. Northern blots analysis were performed using probes derived from AP cDNA and G3PDH cDNA as a control for normalization of mRNA level. AP activity was determined in cell supernatants from the various samples.
# (§2) NFκB binding activity in nuclear extracts (Dignam et al., Nucleic Acids Res. 11:1475-1489, 1983) of cells was measured by electrophoretic mobility-shift assay (EMSA) (Carthew et al., Cell 43:439-448, 1985) using 5'-labeled double-stranded synthetic DNA with two NF-κB motifs. Northern blot analysis was performed with total RNA run on 1% agarose/formaldehyde gel and probed with ^32 P-labeled cDNA of AP and glyceraldehyde-3-phosphate dehydrogenase (G3PDH).
# NFκB = NFκB activation in 293tat cells, electrophoretic mobility shift assay; assay type: cell-based, human; details: CT2576 12 μM, TNF-α 40 ng/ml or IL-1β 1 ng/ml
# Protocol: as §1, §2
# [1] = system: CMV promoter in 293-EBNA cells; assay: AP reporter gene expression from CMV promoter, 293-EBNA cells stably transfected with pCMV.AP; assay type: cell-based, human cytomegalovirus; human cells
# Protocol: An assay for measuring the anti-viral activity of the compounds involves testing the abilities of the compounds to inhibit gene expression directed by specific viral promoters in cell lines. Specifically, a plasmid construct, pCMV.AP, using the human cytomegalovirus (CMV) enhancer and promoter to direct the expression of the secreted human placental alkaline phosphatase reporter gene were transformed into a tumor cell line (e.g., 293-EBNA cells). The cultured cells were treated with various concentrations of the compounds. The expression of the alkaline phosphatase (AP) reporter gene in the individual cultures can then be measured by following the change in absorbance at A405 of the cell conditioned media in the presence of a suitable substrate (e.g., ortho-nitrophenol phosphate) (Berger et al., Gene 66:1,1988).
# The construction of expression vectors for secreted placental alkaline phosphatase (sPAP) was performed by obtaining a mammalian episomal expression vector pBL3, derived from the plasmids pMEP4 and pCEP4 (Invitrogen Corp). Specifically, a 600 bp Spe I--Kpn I fragment spanning the CMV promoter from pCEP4 and a 9500 bp Xba I--Kpn I vector fragment from pMEP4 were isolated and ligated together to form pBL3. Full length sPAP cDNA was amplified by PCR using the plasmid pGEM4Z/SEAP (ATCC) as template with primers 5'-[…]-3' (SEQ ID NO. 1) and 5'-[…]-3' (SEQ ID NO. 2). The PCR product was then digested with Xba I and Sal I and inserted between the Nhe I site and the Xho I site within the multiple cloning region of pBL3. The resulting plasmid was designated as PCMV.AP.
# U1 cells = assay: Cytotoxicity in U1 cells; assay type: cell-based, human
# Text: We studied the effect of CT-2576 on HIV expression in a chronically HIV-1 infected promonocytic U1 cell line (Folks et al., Science 238:800-802, 1987). […] TNF-α and other cytokines can induce HIV expression in U1 cells. U1 cells also express HIV constitutively when grown to a relatively high density. […] An inhibitor of viral reverse transcriptase is expected to only protect new cells from becoming infected but not to affect viral production from cells already infected with HIV. […] While TNF-α induces HIV expression through activation of NFκB, IL-6 and IL-1 also stimulates HIV expression through other pathways independent of NFκB activation in U1 cells.
# 293-EBNA cells [2] = assay: Viability of 293-EBNA cells, Alamar Blue; assay type: cell-based, human
# Protocol: (§3) Cell viability was measured by a colorimetric assay that uses Alamar Blue dye (Alamar, Inc.) to report cell proliferation, viability and cytotoxicity. This vital dye indicates cell activity by serving as substrate for mitochrondrial dehydrogenases for the formation of soluble dyes which can be quantitated by determining the difference in absorbance between A570 and A600 using a plate reader.
# as §3, with “[…]” for “colorimetric”
# This example illustrates that CT2576 suppressed both tat-dependent and TNF-α induced HIV-LTR transcription with an IC50 of approximately 10 μM. Study of the effects of CT2576 on cell toxicity was performed using the Alamar Blue™ dye (Alamar Biosciences) according to the manufacturer's instructions. CT2576 was not toxic to 293-EBNA cells at concentrations up to 35 μM. To show CT2576 can inhibit HIV expression, CT2576 was tested for the ability to block HIV p24 antigen expression in chronically or acutely infected cells. Specifically, CT2576 inhibited the TNF-α and IL-6 induced and the constitutive expression of HIV in the chronically infected U1 cells and in peripheral blood lymphocytes (PBL) freshly infected with a HIV strain from a clinical isolate with an IC50 of approximately 1 μM. Pharmacological inhibition of synthesis of selected PL may therefore be a novel therapeutic approach to suppression of HIV replication.
# [3] = system: HIV-LTR promoter (tat transactivation) in 293-EBNA cells; assay: AP reporter gene expression from HIV-LTR promoter with tat expression vector, 293-EBNA cells; assay type: cell-based, HIV; human cells; details: 293-EBNA cells, HIV promoter, in words
# Text: The plasmid construct, pHIV.AP, using the human immunodeficiency virus (HIV) long terminal repeat (LTR) promoter (derived from pU3R-III CAT, Sodroski et al., Science 227:171, 1985) to direct the expression of the sPAP reporter gene, was made by replacing the CMV promoter region from pCMV.AP with the HIV-LTR promoter. PHIV.AP was co-transfected with pSV2tat72, an expression vector for the 72 amino acids tat protein from HIV (Frankel and Pabo, Cell 55:1189-1193, 1988), into 293-EBNA cells (Invitrogen). The cultured cells were treated with various concentrations of the compounds. The expression of the alkaline phosphatase (AP) reporter gene in the individual cultures was measured by following change in absorbance at 405 nm of the cell conditioned media in the presence of a suitable substrate (e.g., ortho-nitrophenol phosphate) (Berger et al., Gene 66:1-10, 1988).
# We set up a cell-based system with a cell line cotransfected with an expression plasmid using HIV-1-LTR promoter to direct synthesis of AP reporter gene and an expression plasmid to direct synthesis of the first 72 amino acids of tat protein. Plasmid pREP7 (Invitrogen) was converted to pREP7b by deleting 2,040 bp EBNA-1 coding region and by replacing the pBR322 origin of replication (ori) with the pBluescript KS (Stratagene) ori region. The cDNA for secreted placental alkaline phosphatase (AP) was generated by PCR with the primers (5'-[…]-3')(SEQ ID NO. 3) and (5'-[…]-3') (SEQ ID NO. 4)using the plasmid pGEM-4Z/PLAP489 (American Type Culture Collection) as the template. The 2,000 bp Xba I-Sal I fragment obtained was ligated into a Nhe I/Xho I vector derived from pREP7b to generate the plasmid pREP7b.AP. The 44 bp Xba I-Bgl II fragment from plasmid pMEP4 (Invitrogen)and the 36 bp BamH I-Kpn I fragment from pREP7 were ligated into the Xba I-Kpn I vector fragment from pREP7b.AP to generate the plasmid pMCS.AP. The 720 bp Xho I-Hind III fragment encoding the HIV-LTR promoter from the plasmid pU3R-III-CAT (Sodroski et al., Science 227:171-173, 1985) was ligated into the Xho I-Hind III vector fragment of PMCS.AP to generate the plasmid pHIV.AP. The CMV promoter was derived from the 600 bp Spe I-Asp718 I fragment from pCEP4 (Invitrogen). The 360 bp SV40 early promoter fragments were produced from pSV2tat72 (Frankel et al., Cell 55:1189-1193,1988) by PCR using the primers (5'-[…]-3') (SEQ ID NO. 5) and (5'-[…]-3') (SEQ ID NO. 6). The 480 bp phosphoglycerate kinase (PGK) promoter fragment was amplified from human placental genomic DNA (Promega, Madison, Wis.) based on published sequence (Pfeifer et al., Science 246:810-813, 1990) using the primers (5'-[…]-3') (SEQ ID NO. 7) and (5'-[…]-3') (SEQ ID NO. 8). The above fragments were ligated into the Xba I-Asp718 I vector fragment of pHIV.AP to generate pHIV2.AP, pHIV3.AP, pCMV.AP, pSVE.AP and PPGK.AP respectively. The tat-expression plasmid directed by HIV-LTR promoter, pHIV.tat, was generated by inserting the 400 bp EcoRV-HindIII fragment from pHIV.AP into the PvuII-HindIII vector fragment from pSV2tat72 (Frankel et al., Cell 55:1189-1193, 1988).
# Transient transfections with various expression plasmids were performed on a human kidney embryonic cell line 293-EBNA (Invitrogen) using the cationic lipid DOTAP (Boehringer Mannheim). The cell culture media were changed 24 hr after transfection into a serum-free medium AIM V (Life Technologies) before addition of compounds or TNF-α (PeproTech) at the appropriate concentrations. AP activity measured by a colorimetric assay (Berger et al., Gene 66:1-10, 1988) was performed 19-24 hr later.
# 293-EBNA cells [4] = system: 293-EBNA cells
Molecule,AP transcript / mRNA steady-state level (AP mRNA in 293tat cells),activation of NFκB (NFκB),"IC50 ([1]; Homo sapiens, 293-EBNA, FIG. 8, read-out: concentration inhibiting AP activity by 50% (CMV assay))",inhibition of AP expression (CMV promoter) ([1]; in words),"cytotoxicity in U1 cells at 25 μM (U1 cells; 25 μM, FIG. 12 bottom panel, TNFα)","cytotoxicity in U1 cells (U1 cells; FIG. 12 top panel, constitutive)",cytotoxic effect on 293-EBNA cells (Alamar Blue) (293-EBNA cells [2]),inhibition of AP expression (HIV-LTR promoter) [3],effect on cell viability / cytotoxicity (293-EBNA cells [4])
IL-1β: cytokine used as stimulant,induction of AP transcripts,NFκB was activated,–,–,–,–,–,–,–
"CCCCCCCCNCC(O)CCCCCCCCCn1c(=O)ccn(C)c1=O (stereo not drawn) [CT1827, 3-(11-octylamino-10-hydroxyundecyl)-1-methyluracil]",–,–,2 to 6 µM,inhibit CMV promoter driven expression,some cytotoxicity,some cytotoxicity,no significant cytotoxic effect,inhibit HIV promoter driven expression,minimal cytotoxic effects
